Key:
[1] = Dose-escalation pharmacokinetics and metabolism study in 15 healthy subjects (LC-MS/MS)
Procedure: (§1) A dose-escalation study was performed in five consecutive periods (7 days wash-out) in 15 healthy subjects (5 females, 20-25, BMI 19.4-27.6 kg/m2). The racemic analytes were measured using validated LC-MS/MS methods according to Hasan et al., 2017 (Hasan et al., Quantitative chiral and achiral determination of ketamine and its metabolites by LC-MS/MS in human serum, urine and fecal samples, Journal of Pharmaceutical and Biomedical Analysis, 2017, 139, 87-97).
(§2) In addition, 5 mg ketamine (in form of ketamine hydrochloride) solution was intravenously administered within 30 min in fasting state.
The pharmacokinetics of ketamine and its metabolites norketamine and hydroxynorketamine were measured and depicted in the following table 1. AUC stands for the area under the curve, Cmax stands for the maximum plasma concentration, Tmax stands for the time to Cmax, F stands for absolute bioavailability, T1/2 stands for the apparent terminal half-life, AUCNK/K for the ratio of AUCNK to AUCK and AUCHNK/K for the ratio of AUCHNK to AUCK.
The maximum concentration (Cmax) and the time of maximum concentration (Tmax) were obtained directly from the measured concentration-time curves.
The area under the concentrations-time curve (AUC) was calculated with the measured data points from the time of administration until the last quantifiable concentration by the trapezoidal formula. The AUC was assessed up to the last sampling time above the limit of quantification and is extrapolated to infinity to obtain the AUC values.
Apparent Terminal half-life (T1/2) was calculated by the following equation T1/2=ln 2/λz.
The terminal elimination rate constant (λz) was evaluated from the terminal slope by log-linear regression analysis.
The absolute bioavailability (F) was calculated by the following equation Fabs=AUCoral/AUCiv×doseiv/doseoral. 4.2 Safety

[2] = Safety: adverse events in the dose-escalation study in healthy subjects
Procedure: as §1, §2
An adverse event (AE) therefore can be any unfavorable and unintended sign including an abnormal laboratory (or vital, ECG etc.) finding, symptom or disease temporally associated with the use of a medicinal (investigational) product, whether or not related to the medicinal (investigational) product.
A serious adverse event (SAE) is defined as any untoward medical occurrence that at any dose • results in death, or • is life-threatening, or • requires hospitalization or prolongation of existing hospitalization, or • results in persistent or significant disability/incapacity, or • is a congenital anomaly/birth defect
Adverse events (AE) were detected both by a standardized questionnaire on tolerability and by querying the subjects at the scheduled times. Furthermore, the subjects were asked to report any AE spontaneously.

[3] = system: patients with major depressive disorder and bipolar depression; settings: single intravenous 40-minute infusion; lasting 1 week; Zarate et al., 2012; cited from earlier work
mice = settings: Zanos et al., 2016, cited from earlier work
[4] = 5 mg ketamine i.v. infusion (30 min), fasting
[5] = Treatment A ketamine 5 mg i.v., AEs certainly, probably or possibly related

CNC1(c2ccccc2Cl)CCCCC1=O (racemic) [ketamine, 2-(2-chlorophenyl)-2-(methylamino) cyclohexan-1-one]
CL/F of ketamine [1, 4]: 1.67 ± 0.380 L/min | CLM of ketamine [1, 4]: 268 ± 75.6 mL/min | CLintestinal of ketamine [1, 4]: 0.046 ± 0.097 mL/min | AUC ([1]; both, human, plasma, iv, 5 mg): 52.3 ± 12.2 ng·h/mL | CL renal ([1]; both, human, plasma, iv, 5 mg): 33.6 ± 36.5 mL/min | Cmax ([1]; both, human, plasma, iv, 5 mg): 29.9 ± 8.48 ng/mL | MRT ([1]; both, human, plasma, iv, 5 mg): 4.68 ± 2.01 h | Vd ([1]; both, human, plasma, iv, 5 mg): 6.58 ± 3.07 L/kg | half-life ([1]; both, human, plasma, iv, 5 mg): 5.89 ± 2.61 h | Number of AEs ([2]; Treatment A (ketamine 5 mg i.v.)): 10 | Number of subjects reporting dizziness (nervous system disorders) [2, 5]: 6 | Number of subjects reporting palpitation (cardiac disorders) [2, 5]: 1 | Number of subjects reporting tachycardia (cardiac disorder) [2, 5]: 1 | Percent of subjects reporting dizziness (nervous system disorders) [2, 5]: 40% | Percent of subjects reporting palpitation (cardiac disorders) [2, 5]: 7% | Percent of subjects reporting tachycardia (cardiac disorder) [2, 5]: 7% | improvement in patients with major depressive disorder and bipolar depression [3]: rapid improvement

N[C@@]1(c2ccccc2Cl)CCC[C@@H](O)C1=O [(2R,6R)-hydroxynorketamine]
ketamine-related side effects (mice): lack ketamine-related side effects | antidepressant-related actions (mice; independent of NMDR-inhibition): exerts antidepressant-related actions

Reference: patent publication US11723883B2, “Hydroxynorketamine for the use in the treatment of depression” (DEVELCO PHARMA SCHWEIZ AG, priority 2017, dated 2023)
